Reference: paper PMC13289148, “Assessment of the toxic effects of parabens, commonly used preservatives in cosmetics, and their halogenated by-products on human skin and endothelial cells” (NAM journal, 2025)
“Also recorded” adds a separate entry of the source.

Experiments:
[1] = MTT cytotoxicity assay, HEK001 keratinocytes; assay type: cell-based, human; conditions: human, HEK001 epidermal keratinocytes, 24 h exposure, MTT, HEK001 keratinocytes; average ± standard deviation; read-out: EC50 from cytotoxicity assay, HEK001
Experimental: (§1) The human epidermal keratinocytes HEK001 (CRL-2404, ATCC, Manassas, VA) were maintained in a keratinocyte-serum-free medium supplemented with 5 ng/mL human recombinant EGF. The cells were incubated under 5 % CO2 and a 95 % humidified atmosphere at 37 °C ([Bogen et al., 2017]). HMEC-1 cells (CRL-3243, ATCC) were cultured at 37 °C in a 5 % CO2 humidified atmosphere using MCDB-131 medium supplemented with 10 % fetal bovine serum, 1 % penicillin/streptomycin, 10 mM l-glutamine, 1 μg/mL hydrocortisone, and 10 ng/mL EGF supplement.
(§2) The experiments were performed with biological (96 well plates) and technical (wells) replicates. Four to five biological replicates with four technical replicates were used to determine cytotoxicity. Ten paraben concentrations were assessed, ranging from a low human serum-relevant concentration (1 pM) to a high non-human-relevant concentration (1 mM). A solvent control of 0.6 % DMSO and a positive control of 5 % DMSO were also used. Three representative concentrations were chosen for each cell line for the wound-healing assay. Those concentrations were 1 µM, 10 µM, and 100 µM. Upon dosing, plates were returned to the incubator for a 24-hour exposure period.
(§3) Cell viability was assessed using the MTT assay [3-(4,5-dimethylthiazol-2-yl)−2,5-diphenyltetrazolium bromide] ([Solan et al., 2022]). After 24 h of exposure, a 20 % tetrazolium dye solution was added to the cells. The NAD(P)H-dependent oxidoreductase enzymes in viable cells reduced the tetrazolium dye, producing insoluble formazan crystals visible as a purple coloration, indicative of active cellular respiration. Following the incubation period, the media was carefully removed, leaving the formazan crystals behind. To dissolve these crystals, a 1:1 solution of ethanol and DMSO was added to the plate. Absorbance was then measured at 595 nm on a spectrophotometer to quantify the extent of formazan formation (BioTek SynergyTM H1, Winooski, VT).
(§4) A 24-hour exposure period was selected to evaluate the acute toxicity of parabens on HEK001 and HMEC-1 cell lines. […] Assessing the acute effects on these less-characterized cell lines is critical for enabling meaningful comparisons across models. Additionally, acute toxicity studies minimize confounding factors such as nutrient depletion and cell overgrowth, facilitating higher-throughput screening.

[2] = MTT cytotoxicity assay, HMEC-1 endothelial cells; assay type: cell-based; conditions: human, HMEC-1 dermal microvascular endothelial cells, read-out: EC50 from cytotoxicity assay, HMEC-1
Experimental: as §1, §2, §3, §4

M624 melanoma cells = system: M624 melanoma cells; parameters: method as in Couch, 2024; Kinney, 2022; conditions: 200 µM, ref Couch, 2024, Kinney, 2022; cited from earlier work
HaCaT keratinocytes = system: HaCaT keratinocytes; parameters: method as in Couch, 2024; Kinney, 2022; conditions: 200 µM, ref Couch, 2024, Kinney, 2022; cited from earlier work
[3] = system: HEK001 cells (human epidermal keratinocytes); assay: MTT cytotoxicity assay, HEK001 keratinocytes; assay type: cell-based; conditions: for cytotoxic response at high concentration: HEK001, 100 µM, proliferation could not be observed; for EC50: 24 h exposure, MTT, HEK001 keratinocytes, average ± standard deviation, read-out: EC50 from cytotoxicity assay, HEK001
Experimental: as §1, §2, §3, §4

HEK001 cells = assay: Wound healing (scratch) assay, HEK001; assay type: cell-based, human; conditions: for proliferation rate in wound healing assay / proliferation rate / wound healing: 24 h; for proliferation rate / wound healing: HEK001, 100 µM
Experimental: as §1, §2
(§5) As described by [Grada et al. (2017)] and [Yarrow et al. (2004)], a wound-healing assay was used to evaluate the proliferation rate of a disrupted cell monolayer. Cells were seeded at 200,000 cells/mL in 48-well plates and allowed to stabilize, reaching 90–100 % confluency within 24–72 h. Once confluent, the growth media was removed, and a scratch was created in the cell monolayer using a pipette tip. Manual disruption of the cell monolayer was chosen over the use of inserts or automated scratching devices to design experiments that are cost-effective and accessible to laboratories with limited budgets. This approach provides greater flexibility in experimental design without reliance on specialized equipment, making it a practical solution for resource-constrained settings. Additionally, the manual scratch method may better simulate real-world injury scenarios. To minimize variability, consistent pipette tip sizes were employed, experiments were performed in multiple replicates, and immediate visual inspections were conducted to ensure reproducibility and uniformity across trials. The exposure media was then applied, and cytochalasin D ([…]) was used as a positive control to inhibit wound healing by suppressing cell division via […]. Cells were incubated with exposure media for 24 h while kinetic high contrast brightfield (HCBF) images were captured every 30 min using the Lionheart FX automated microscope (Biotek, Agilent). Gen5 software analyzed the scratch area over time, measuring the reduction in cell-free area as migration occurred. All data were normalized to the solvent control for consistency.

HMEC-1 cells = assay: Wound healing (scratch) assay, HMEC-1; assay type: cell-based, human; conditions: for proliferation rate / wound healing / proliferation rate relative to baseline / untreated control / sensitivity at high concentration: HMEC-1, 100 µM; for proliferation rate / wound healing / proliferation rate relative to baseline / untreated control / proliferation rate in wound healing assay: 24 h; for proliferation rate in wound healing assay: HMEC-1, 1–10 µM
Experimental: as §1, §2, §5

HepG2 cells [4] = system: HepG2 cells; parameters: method as in Khanal et al., 2012; conditions: 125 µM, HepG2, compared to HBA, MeP, and PrP; ref Khanal et al., 2012; cited from earlier work
HepG2 cells [5] = system: HepG2 cells; parameters: method as in Kizhedath et al., 2019; conditions: 125 µM, ref Kizhedath et al., 2019; cited from earlier work
HDFn cells = system: HDFn cells; parameters: method as in Kizhedath et al., 2019; conditions: 125 µM, ref Kizhedath et al., 2019; cited from earlier work
red blood cells (RBCs) = system: red blood cells (RBCs); parameters: method as in Ko et al. (2023); conditions: ref Ko et al. (2023), cited from earlier work
[6] = 24 h exposure, MTT, HMEC-1 endothelial cells, average ± standard deviation
[7] = HEK001, 1 µM, versus solvent control
[8] = HEK001, 10 µM, versus solvent control

Row | SMILES | EC50 at 24 h [1] [µM] | EC50 at 24 h [2, 6] [µM] | cytotoxic response at high concentration [3] | proliferation rate relative to baseline / untreated control (HMEC-1 cells) | proliferation rate in wound healing assay (HMEC-1 cells) | sensitivity at high concentration (HMEC-1 cells) | proliferation rate / wound healing (HEK001 cells; versus solvent control) | EC50 [3] [µM] | proliferation rate in wound healing assay (HEK001 cells; [7]) | further results
1 | O=C(O)c1ccc(O)cc1 [HBA, 4-hydroxybenzoic acid] | 696 ± 245 | > 10000 |  |  |  |  |  |  |  | 
2 | CCCCCCCOC(=O)c1ccc(O)cc1 [heptylparaben] |  |  |  |  |  |  |  |  |  | cell viability, cytochrome C levels, caspase 3 (M624 melanoma cells): significantly reduced cell viability, increased cytochrome C levels, and activated caspase 3; cell viability, cytochrome C levels, caspase 3 (HaCaT keratinocytes): significantly reduced cell viability, increased cytochrome C levels, and activated caspase 3
3 | COC(=O)c1ccc(O)c(Cl)c1 [CMeP, methyl 3‑chloro-4-hydroxybenzoate] | 2.2 ± 0.8 | 788 ± 139 | significant cell death | 20–30% | proliferation rates comparable to those observed in untreated controls; also recorded: no significant changes in proliferation |  |  |  |  | proliferation rate in wound healing assay (HEK001 cells; HEK001, 1–10 µM): decrease in proliferation; proliferation rate / wound healing (HMEC-1 cells): reduction
4 | CCCOC(=O)c1ccc(O)cc1 [PrP, propylparaben] | 17 ± 9.9 | 102 ± 18 | acutely lethal responses |  | proliferation rates comparable to those observed in untreated controls | too sensitive to conduct proliferation assays |  |  |  | 
5 | CCOC(=O)c1ccc(O)cc1 [EtP, ethylparaben] | 536 ± 178 | 171 ± 77.9 |  | 20–30% | proliferation rates comparable to those observed in untreated controls |  | substantial decrease in proliferation rates |  |  | 
6 | O=C(OCc1ccccc1)c1ccc(O)cc1 [BeP, benzylparaben] | 3.34 ± 0.97 | 25.6 ± 3.9 | acutely lethal responses |  | proliferation rates comparable to those observed in untreated controls | too sensitive to conduct proliferation assays |  | 3.3 ± 1 | lower proliferation rates compared to the solvent control | proliferation rate in wound healing assay (HEK001 cells; [8]): proliferation significantly decreased; also recorded: lower proliferation rates compared to the solvent control
7 | COC(=O)c1ccc(O)cc1 [MeP, Methyl 4-hydroxybenzoate] | 1310 ± 464 |  |  | 160% | proliferation rates comparable to those observed in untreated controls |  | substantial decrease in proliferation rates |  |  | EC50 at 24 h [2]: 1090 ± 618 µM
8 | COC(=O)c1cc(Br)c(O)c(Br)c1 [DBMeP, methyl 3,5-dibromo-4-hydroxybenzoate] | 1.49 ± 0.37 | 489 ± 86.4 |  | 20–30% |  |  | dose-dependent increase in proliferation | 1.5 ± 0.4 | initially reduced proliferation | proliferation in wound healing assay (HEK001 cells; HEK001, concentrations higher than 1 µM): dose-dependent increase in proliferation; proliferation in wound healing assay (HMEC-1 cells; HMEC-1, concentration not stated, high variability): reduction in proliferation
9 | CCCCOC(=O)c1ccc(O)cc1 [BuP, butylparaben] | 1.52 ± 0.51 | 75.8 ± 13.4 | acutely lethal responses |  | proliferation rates comparable to those observed in untreated controls | too sensitive to conduct proliferation assays |  | 1.5 ± 0.51 | lower proliferation rates compared to the solvent control | proliferation rate in wound healing assay (HEK001 cells; [8]): proliferation significantly decreased; also recorded: lower proliferation rates compared to the solvent control; percentage of apoptotic cells (HepG2 cells [4]): higher percentage of apoptotic cells; cell cycle (HepG2 cells [5]): cell cycle arrest in the G1 phase; cell cycle (HDFn cells): cell cycle arrest in the G1 phase; hemolysis of RBCs (red blood cells (RBCs); 500 µM): increased hemolysis; extracellular phosphatidylserine of RBCs (red blood cells (RBCs); only BuP among MeP, EtP, PrP, BuP, HBA): increase in extracellular phosphatidylserine
10 | COC(=O)c1cc(Cl)c(O)c(Cl)c1 [DCMeP, methyl 3,5-dichloro-4-hydroxybenzoate] | 54.5 ± 17.8 | > 10000 | significant cell death | 20–30% | no significant changes in proliferation |  |  |  |  | proliferation rate in wound healing assay (HEK001 cells; HEK001, 1–10 µM): decrease in proliferation; proliferation rate / wound healing (HMEC-1 cells): reduction
